# Test results reported in patent US7829563B2, “Aminoamides as orexin antagonists” (Hoffmann-La Roche Inc., priority 2007, dated 2010).
# Counter-ions that a name gives are not always drawn.
# Molecular target: T1, human orexin-2 (hOX2) receptors (Homo sapiens, UniProt O43614)
# T1 construct: expressed in transfected cells
# T1 sequence (O43614 1-444): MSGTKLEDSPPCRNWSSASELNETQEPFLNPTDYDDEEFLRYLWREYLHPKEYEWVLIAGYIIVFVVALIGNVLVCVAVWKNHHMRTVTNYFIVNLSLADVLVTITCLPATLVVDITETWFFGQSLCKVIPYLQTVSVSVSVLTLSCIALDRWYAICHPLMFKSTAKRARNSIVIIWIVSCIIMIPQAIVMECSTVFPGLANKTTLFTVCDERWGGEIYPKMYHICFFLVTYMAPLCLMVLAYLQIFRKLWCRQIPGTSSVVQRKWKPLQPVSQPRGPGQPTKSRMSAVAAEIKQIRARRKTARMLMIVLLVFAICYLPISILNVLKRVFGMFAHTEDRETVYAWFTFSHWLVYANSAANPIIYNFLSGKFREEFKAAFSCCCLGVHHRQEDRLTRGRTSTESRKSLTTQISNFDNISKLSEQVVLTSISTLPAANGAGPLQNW
# Assay: Intracellular Ca2+ mobilization assay (FLIPR), antagonism of orexin-A
# Format: cell-based
# Conditions: CHO(dHFr−) cells stably expressing hOX2; orexin-A at EC80 as agonist; Kb=IC50/(1+[A]/EC50); read-out: Kb (μM) OX2R (human)
# Experimental: R^7 and R^8 in scheme 5 are hydrogen, and the other substituents are as described above The compounds were investigated in accordance with the test given hereinafter. Intracellular Ca^2+ Mobilization Assay
# The Chinese Hamster Ovary (dHFr−) mutant cell line stably expressing human orexin-1 (hOX1) or human orexin-2 (hOX2) receptors were maintained in Dulbecco's Modified Eagle Medium (1×) with GlutaMax™ 1, 4500 mg/L D-Glucose and Sodium Pyruvate (Catalog No. 31966-021, Invitrogen, Carlsbad, Calif.), 5% dialyzed fetal calf serum (Catalog No. 26400-044), 100 μg/ml penicillin and 100 μg/ml streptomycin. The cells were seeded at 5×10^4 cells/well in the poly-D-lysine treated, 96-well, black/clear-bottomed plates (Catalog No. BD356640, BD Biosciences, Palo Alto, Calif.). 24 h later, the cells were loaded for 1 h at 37° C. with 4 μM Flou-4 acetoxymethyl ester (Catalog No. F-14202, Molecular Probes, Eugene, Oreg.) in FLIPR buffer (1×HBSS, 20 mM HEPES, 2.5 mM Probenecid). Hanks' Balanced Salt Solution (HBSS) (10×) (catalog No. 14065-049) and HEPES (1M) (catalog No. 15630-056) were purchased from Invitrogen, Carlsbad, Calif. Probenecid (250 mM) (catalog No. P8761) was from Sigma, Buchs, Switzerland. The cells were washed five times with FLIPR buffer to remove excess dye and intracellular calcium mobilization, [Ca^2+]i were measured using a Fluorometric Imaging Plate Reader (FLIPR-96, Molecular Devices, Menlo Park, Calif.) as described previously (Malherbe et al., Mol. Pharmacol., 64, 823-832, 2003). Orexin A (catalog No. 1455, Toris Cookson Ltd, Bristol, UK) was used as agonist. Orexin A ([…] stock solution in DMSO) was diluted in FLIPR buffer+0.1% BSA. The EC50 and EC80 values of orexin-A were measured daily from standard agonist concentration-response curves in CHO(dHFr−)-OX1R and —OX2R cell lines. All compounds were dissolved in 100% DMSO. Inhibition curves were determined by addition of 11 concentrations (0.0001-10 μM) of inhibitory compounds and using EC80 value of orexin-A as agonist (a concentration which gave 80% of max agonist response, determined daily). The antagonists were applied 25 min (incubation at 37° C.) before the application of the agonist. Responses were measured as peak increase in fluorescence minus basal, normalized to the maximal stimulatory effect induced by EC80 value of orexin-A or orexin-B. Inhibition curves were fitted according to the Hill equation: y=100/(1+(x/IC50)^nH), where nH=slope factor using Excel-fit 4 software (Microsoft). Kb values were calculated according to the following equation Kb=IC50/(1+[A]/EC50) where A is the concentration of agonist added which is very close to agonist EC80 value, and IC50 and EC50 values were derived from the antagonist inhibition and orexin-A or B agonist curves, respectively.
row,Compound,Kb [µM]
1,"CNC(=O)[C@H](N[C@@H](CCc1ccc(C(F)(F)F)cc1)c1cc(OC)ccn1)c1ccccc1 (racemic) [Example 210, (S,R)-2-[(R,S)-1-(4-Methoxy-pyridin-2-yl)-3-(4-trifluoromethyl-phenyl)-propylamino]-N-methyl-2-phenyl-acetamide]",0.0096
2,"CNC(=O)[C@H](N[C@@H](CCc1ccc(C(F)(F)F)cc1)c1ccc2c(c1)OCCN2C)c1ccccc1 [Example 115, (R)—N-Methyl-2-[(S)-1-(4-methyl-3,4-dihydro-2H-benzo[1,4]oxazin-7-yl)-3-(4-trifluoromethyl-phenyl)-propylamino]-2-phenyl-acetamide]",0.0114
3,"CNC(=O)[C@H](N[C@@H](CCc1ccc(C(F)(F)F)nc1)c1ccc(C)c(C)c1)c1ccccc1 (racemic) [Example 251, (S,R)-2-[(R,S)-1-(3,4-Dimethyl-phenyl)-3-(6-trifluoromethyl-pyridin-3-yl)-propylamino]-N-methyl-2-phenyl-acetamide]",0.0022
4,"CNC(=O)[C@H](N[C@@H](CCc1ccc(C(F)(F)F)cc1)c1ccc2c(c1)OCCN2C)c1ccccc1 (racemic) [Example 78, (S,R)—N-Methyl-2-[(R,S)-1-(4-methyl-3,4-dihydro-2H-benzo[1,4]oxazin-7-yl)-3-(4-trifluoromethyl-phenyl)-propylamino]-2-phenyl-acetamide]",0.0127
5,"CNC(=O)[C@H](N[C@@H](CCc1ccc(C(F)(F)F)cc1)c1ccc(OC)c(OC)c1)c1ccc(F)cc1 [Example 95, (R)-2-[(S)-1-(3,4-Dimethoxy-phenyl)-3-(4-trifluoromethyl-phenyl)-propylamino]-2-(4-fluoro-phenyl)-N-methyl-acetamide]",0.0086
6,"CNC(=O)[C@H](N[C@@H](CCc1ccc(C(F)(F)F)nc1)c1ccc(F)c(OC)c1)c1ccccc1 (racemic) [Example 232, (S,R)-2-[(R,S)-1-(4-Fluoro-3-methoxy-phenyl)-3-(6-trifluoromethyl-pyridin-3-yl)-propylamino]-N-methyl-2-phenyl-acetamide]",0.0085
7,"CNC(=O)[C@H](N[C@H](CCc1ccc(Cl)cc1)c1ccc(OC)c(OC)c1Cl)c1ccccc1 (racemic) [Example 41, (S,R)-2-[(S,R)-1-(2-Chloro-3,4-dimethoxy-phenyl)-3-(4-chloro-phenyl)-propylamino]-N-methyl-2-phenyl-acetamide]",0.0167
8,"CNC(=O)[C@H](N[C@@H](CCc1ccc(C(F)(F)F)nc1)c1ccc(F)c(OC)c1)c1ccc(Cl)cc1 (racemic) [Example 230, (S,R)-2-(4-Chloro-phenyl)-2-[(R,S)-1-(4-fluoro-3-methoxy-phenyl)-3-(6-trifluoromethyl-pyridin-3-yl)-propylamino]-N-methyl-acetamide]",0.0117
9,"CNC(=O)[C@H](N[C@@H](CCc1ccc(C(F)(F)F)cc1)c1ccc(OC)c(OC)c1)c1ccc(Cl)cc1 [Example 94, (R)-2-(4-Chloro-phenyl)-2-[(S)-1-(3,4-dimethoxy-phenyl)-3-(4-trifluoromethyl-phenyl)-propylamino]-N-methyl-acetamide]",0.0051
10,"CNC(=O)[C@H](N[C@H](CCc1ccc(C(F)(F)F)cc1)c1cc(C)on1)c1ccccc1 (racemic) [Example 301, (S,R)—N-Methyl-2-[(S,R)-1-(5-methyl-isoxazol-3-yl)-3-(4-trifluoromethyl-phenyl)-propylamino]-2-phenyl-acetamide]",0.0116
11,"COc1ccc(C(CCc2ccc(C(F)(F)F)cc2)N[C@@H](C(=O)NCC2CC2)c2ccccc2)cc1OC (single isomer, unassigned) [Example 16, (R)-N-Cyclopropylmethyl-2-[(R or S)-1-(3,4-dimethoxy-phenyl)-3-(4-trifluoromethyl-phenyl)-propylamino]-2-phenyl-acetamide]",0.0142
12,"CNC(=O)[C@@](C)(N[C@@H](CCc1ccc(C(F)(F)F)cc1)c1ccc(OC)c(OC)c1)c1ccccc1 (single isomer, unassigned) [Example 29]",0.0184
13,"CNC(=O)[C@H](N[C@@H](CCc1ccc(C(F)(F)F)cc1)c1cc(C)ccc1F)c1ccc(F)cc1 [Example 124, (R)-2-[(S)-1-(2-Fluoro-5-methyl-phenyl)-3-(4-trifluoromethyl-phenyl)-propylamino]-2-(4-fluoro-phenyl)-N-methyl-acetamide]",0.0123
14,"CNC(=O)[C@@H](N[C@H](CCc1ccc(C(F)(F)F)cc1)c1cccc(OC)c1)c1ccccc1 [Example 222, (S)-2-[(R)-1-(3-Methoxy-phenyl)-3-(4-trifluoromethyl-phenyl)-propylamino]-N-methyl-2-phenyl-acetamide hydrochloride]",0.0171
15,"CNC(=O)[C@H](N[C@@H](CCc1ccc(C(F)(F)F)cc1)c1ccc(OC)c(OC)c1)c1ccc(F)cc1 (racemic) [Example 34, (S,R)-2-[(R,S)-1-(3,4-Dimethoxy-phenyl)-3-(4-trifluoromethyl-phenyl)-propylamino]-2-(4-fluoro-phenyl)-N-methyl-acetamide]",0.0049
16,"CNC(=O)[C@H](N[C@@H](CCc1ccc(OC)cc1)c1cccnc1OC)c1ccccc1 (racemic) [Example 135, (S,R)-2-[(R,S)-3-(4-Methoxy-phenyl)-1-(2-methoxy-pyridin-3-yl)-propylamino]-N-methyl-2-phenyl-acetamide]",0.0155
17,"CNC(=O)[C@H](N[C@@H](CCc1ccc(OC)cc1)c1ccc(OC)c(OC)c1)c1ccccc1 (racemic) [Example 146, (S,R)-2-[(R,S)-1-(3,4-Dimethoxy-phenyl)-3-(4-methoxy-phenyl)-propylamino]-N-methyl-2-phenyl-acetamide]",0.0132
18,"CNC(=O)[C@H](N[C@@H](CCc1ccccc1)c1ccc(OC)c(OC)c1)c1ccccc1 (single isomer, unassigned) [Example 314]",0.0067
19,"CNC(=O)[C@H](N[C@@H](CCc1ccc(Cl)cc1)c1ccc2c(c1)CCO2)c1ccccc1 (racemic) [Example 38, (S,R)-2-[(R,S)-3-(4-Chloro-phenyl)-1-(2,3-dihydro-benzofuran-5-yl)-propylamino]-N-methyl-2-phenyl-acetamide]",0.0096
20,"CNC(=O)[C@H](N[C@@H](CCc1ccc(C(F)(F)F)nc1)c1cc(Cl)ccc1OC)c1ccc(F)cc1 [Example 104, (R)-2-[(S)-1-(5-Chloro-2-methoxy-phenyl)-3-(6-trifluoromethyl-pyridin-3-yl)-propylamino]-2-(4-fluoro-phenyl)-N-methyl-acetamide]",0.0148
21,"CNC(=O)[C@H](N[C@@H](CCc1cccc(C(F)(F)F)c1)c1ccc(OC)c(OC)c1)c1ccccc1 (racemic) [Example 321, (R,S)-2-[(S,R)-1-(3,4-Dimethoxy-phenyl)-3-(3-trifluoromethyl-phenyl)-propylamino]-N-methyl-2-phenyl-acetamide]",0.0028
22,"CNC(=O)[C@H](N[C@@H](CCc1ccc(C(F)(F)F)nc1)c1ccc(F)c(C)c1)c1ccc(C)cc1 (racemic) [Example 334, (R,S)-2-[(S,R)-1-(4-Fluoro-3-methyl-phenyl)-3-(6-trifluoromethyl-pyridin-3-yl)-propylamino]-N-methyl-2-p-tolyl-acetamide]",0.01
23,"CNC(=O)[C@H](N[C@@H](CCc1ccc(C(F)(F)F)cc1)c1cccc(C)n1)c1ccccc1 (racemic) [Example 207, (S,R)—N-Methyl-2-[(R,S)-1-(6-methyl-pyridin-2-yl)-3-(4-trifluoromethyl-phenyl)-propylamino]-2-phenyl-acetamide]",0.0079
